Measurements published in US20120309821A1, “Use of epigallocatechin-3-gallate for immune regulation” (NATIONAL DEFENSE MEDICAL CENTER, priority 2011, published 2012).

Legend:
superoxide anion = assay: Kidney in-situ ROS production by dihydroethidium (DHE) labeling; assay type: in vivo, mouse; details: 120 mg/kg by gavage daily, week 34
Experimental: Female NZB/W F1 mice were purchased from the Animal Center of the National Taiwan University (Taipei, Taiwan, ROC) and, at 12 weeks of age, were divided into two groups, one of which was given normal saline and served as the disease control, while the other was given 120 mg/kg body weight of EGCG (Ryss Lab, Inc., CA, USA) (this dose is a slight modification of those used in previous in vivo studies) by gavage daily till sacrificed at 34-weeks-old. 8-Week-old NZB/W F1 female mice (prior to onset of autoantibody production) were used as normal controls. Urine samples were collected in metabolic cages every 2 weeks and urine protein levels were measured, and serum samples were used to measure serum levels of blood urea nitrogen (BUN) and creatinine (Cr) as described previously (Ka, S. M. et al. Decoy receptor 3 ameliorates an autoimmune crescentic glomerulonephritis model in mice. J Am Soc Nephrol 18:2473-2485; 2007). […] Kidney in situ superoxide anion production was determined by dihydroethidium (DHE) labeling. Fluorescent images were quantified by counting the percentage of positive nuclei in the total nuclei per kidney cross-section. Superoxide anion levels in serum and kidney tissues were measured as described previously and the results expressed as reactive luminescence units (RLU) per 15 min per milligram dry weight (i.e., RLU/15 min/mg dry weight).

IL-1β = assay: Serum IL-1β ELISA; assay type: in vivo, mouse; details: 120 mg/kg by gavage daily; week 34; vs disease control mice
Experimental: Female NZB/W F1 mice were purchased from the Animal Center of the National Taiwan University (Taipei, Taiwan, ROC) and, at 12 weeks of age, were divided into two groups, one of which was given normal saline and served as the disease control, while the other was given 120 mg/kg body weight of EGCG (Ryss Lab, Inc., CA, USA) (this dose is a slight modification of those used in previous in vivo studies) by gavage daily till sacrificed at 34-weeks-old. 8-Week-old NZB/W F1 female mice (prior to onset of autoantibody production) were used as normal controls. Urine samples were collected in metabolic cages every 2 weeks and urine protein levels were measured, and serum samples were used to measure serum levels of blood urea nitrogen (BUN) and creatinine (Cr) as described previously (Ka, S. M. et al. Decoy receptor 3 ameliorates an autoimmune crescentic glomerulonephritis model in mice. J Am Soc Nephrol 18:2473-2485; 2007). All animal experiments were performed upon the ethical approval of the Institutional Animal Care and Use Committee of the National Defense Medical Center, Taiwan and according to the ethical rules in the NIH Guide for the Care and Use of Laboratory Animals. Serum levels of IL-1β and IL-18 were measured using commercial ELISA kits (BD Biosciences) according to the manufacturer's instructions.

Substance: Epigallocatechin-3-gallate [EGCG]
- DHE fluorescence (in-situ ROS production in renal tissue) (superoxide anion): very low
- serum levels of IL-1β (IL-1β): significantly lower
